Where two headings read alike, the source gives them in different places.
Settings: 0.03 mCi/ml, excipient 1 mg/ml in sodium acetate-acetic acid buffer pH 5.80, 25° C.
Protocol: After drying in an incubator at a temperature of 38° C., the radio-TLC conversion was analyzed at different time points with a radio-TLC reader (Eckert & Ziegler AR-2000) set at High Voltage=1000 (to ensure alpha detection) until the ratio between labeled product and the free Ac225 ion no longer change (typically after 6-8 hours of TLC separation to ensure equilibrium between Ac225 and daughter nuclides).
The formulations were buffered with sodium acetate-acetic acid 0.4 M solution to pH 5.80 (±0.10). […] Sodium L-Ascorbate/L-Ascorbic acid buffer was adjusted to pH 5.80 (±0.10). Water for Injection (WFI) with the same dilution without any excipient is used as the control formulation. The mixture was kept at room temperature (25° C.).

SMILES | Percentage of ^225Ac present in [^225Ac]Ac-DOTA-TATE (24 hours after mixing) [%] | Percentage of ^225Ac present in [^225Ac]Ac-DOTA-TATE (48 hours after mixing) [%]
Oc1ccccc1 [Phenol] | – | 87.88
O=C(O)CCCC[C@@H]1CCSS1 (racemic) [Lipoic Acid] | 92.97 | 87.93
NCCCC[C@H](N)C(=O)O [L-Lysine] | 95.45 | 89.52
O=S([O-])O.[Na+] [Sodium Bisulfite] | 0 | –
N[C@@H](CCC(=O)N[C@@H](CS)C(=O)NCC(=O)O)C(=O)O [L-Glutathione] | 91.18 | 85.56
CCO [10% EtOH, EtOH] | 96.35 | 92.16

More lines, now with the values ahead:

Percentage of ^225Ac present in [^225Ac]Ac-DOTA-TATE (24 hours after mixing) [%] | Percentage of ^225Ac present in [^225Ac]Ac-DOTA-TATE (48 hours after mixing) [%] | SMILES
90.20 | 82.18 | O=C(O)CC(O)(CC(=O)O)C(=O)O [Citric Acid]
93.39 | 89.58 | CSCC[C@H](N)C(=O)O [L-Methionine]
– | 92.21 | O=C1O[C@H]([C@@H](O)CO)C([O-])=C1O.[Na+] [Sodium Ascorbate, pH 5.8, Sodium Ascorbate]
91.19 | 87.41 | CC(=O)N[C@@H](CS)C(=O)O [N-Acetyl-L-Cysteine]
93.08 | 87.65 | O=C(O)c1ccccc1O [Salicylic Acid]
95.77 | 91.38 | O=C(O)CN(CCN(CC(=O)O)CC(=O)O)CCN(CC(=O)O)CC(=O)O [DTPA, Diethylenetriaminepentaacetic acid]
93.45 | 87.66 | N[C@H](CS)C(=O)O [D-Cysteine]

From patent US11819556B2, “Stabilized compositions of radionuclides and uses thereof” (RayzeBio, Inc., priority 2021, dated 2023)
